{"source": "patent US20060264388A1", "about": "“Method for treating liver cancer by intrahepatic administration of nemorubicin” (priority 2003, published 2006)", "key": {"[1]": {"tested_on": "patients with liver cancer", "assay": "Hematological toxicity - Leucocytes, worst CTC Grade by cycle, intrahepatic artery nemorubicin q8wk vs q6wk", "format": "in vivo, human", "conditions": "800 mcg/m^2 q8wk", "method": "(§1) The objective of the study was to shorten the time interval between treatment administrations from every 8 weeks (q8wk) of the protocol as reported in WO 00/15203 to every 6 weeks (q6wk). This was done in the attempt of improving the therapeutic potential of nemorubicin treatment through an increase of the dose intensity of the therapy, simultaneously safeguarding patient safety.\n(§2) Overall, 13 patients were treated with the q8wk schedule (total 25 cycles administered; doses ranged from 200 to 800 mcg/m^2), and 11 patients were treated with the q6wk schedule (total 32 cycles administered; doses were 200 and 600 mcg/m^2).\n(§3) The NCI-Common Tosicity Criteria grading system (CTC Grade), Version 2.0, was used to report toxicities.\nA slight cumulative effect (i.e., increase in frequency but not in severity) was observed after repeated cycles for leucopenia and neutropenia (Tables 2 and 3), mainly with the q8wk schedule."}, "[2]": {"tested_on": "patients with liver cancer", "assay": "Liver toxicity (SGOT, SGPT, Total Bilirubin), worst CTC Grade by cycle, intrahepatic artery nemorubicin q8wk vs q6wk", "format": "in vivo, human", "method": "as §1, §2, §3"}, "[3]": {"tested_on": "tumor cells resistant to L-PAM or cDDP, or cells resistant to Topoisomerase II inhibitors (at-mdr)", "conditions": "cited from earlier work"}, "[4]": {"tested_on": "liver metastases from M5076 murine fibrosarcoma", "conditions": "cited from earlier work"}, "[5]": {"tested_on": "liver metastases from M5076 murine", "conditions": "M5076 murine reticulosarcoma; cited from earlier work"}, "[6]": {"tested_on": "liver lesions of breast cancer patients with liver metastases", "conditions": "1500 mcg/m^2 i.v., cited from earlier work"}, "[7]": {"tested_on": "tumor cells", "conditions": "mouse, rat and human liver microsomes; cited from earlier work"}, "[8]": {"tested_on": "liver metastases in colorectal and renal cancer patients", "conditions": "i.v., cited from earlier work"}, "[9]": {"conditions": "200 mcg/m^2 q6wk, 12 evaluable cycles"}, "[10]": {"conditions": "200 mcg/m^2 q8wk, 5 evaluable cycles"}, "[11]": {"conditions": "400 mcg/m^2 q8wk, 4 evaluable cycles"}, "[12]": {"conditions": "600 mcg/m^2 q6wk, 17 evaluable cycles"}, "[13]": {"conditions": "600 mcg/m^2 q6wk, 18 evaluable cycles"}, "[14]": {"conditions": "600 mcg/m^2 q8wk, 7 evaluable cycles"}, "[15]": {"conditions": "800 mcg/m^2 q8wk, 5 evaluable cycles"}, "[16]": {"conditions": "800 mcg/m^2 q8wk, 6 evaluable cycles"}}, "data": [{"compound": "COc1cccc2c1C(=O)c1c(O)c3c(c(O)c1C2=O)C[C@@](O)(C(=O)CO)C[C@@H]3O[C@H]1C[C@H](N2CCO[C@H](OC)C2)[C@H](O)[C@H](C)O1.Cl", "note": "[nemorubicin, 3′desamino-3′[2(S)methoxy-4-morpholinyl]doxorubicin-hydrochloride]", "values": [{"measurement": "Leucocytes, worst CTC Grade by cycle: All Grades (%)", "setting": "[1]; All cycles, 4 evaluable cycles", "value": "3 (75%) (%)"}, {"measurement": "Leucocytes, worst CTC Grade by cycle: Grade 1-2 (%)", "setting": "[1]; All cycles, 4 evaluable cycles", "value": "3 (75%) (%)"}, {"measurement": "Leucocytes, worst CTC Grade by cycle: All Grades (%)", "setting": "[1]; Cycle 1, 3 evaluable cycles", "value": "2 (67%) (%)"}, {"measurement": "Leucocytes, worst CTC Grade by cycle: Grade 1-2 (%)", "setting": "[1]; Cycle 1, 3 evaluable cycles", "value": "2 (67%) (%)"}, {"measurement": "Leucocytes, worst CTC Grade by cycle: All Grades (%)", "setting": "[1]; Cycles > 1, 1 evaluable cycle", "value": "1 (100%) (%)"}, {"measurement": "Leucocytes, worst CTC Grade by cycle: Grade 1-2 (%)", "setting": "[1]; Cycles > 1, 1 evaluable cycle", "value": "1 (100%) (%)"}, {"measurement": "SGOT, worst CTC Grade by cycle (increased of at least one Grade versus baseline Grade): All Grades (%)", "setting": "[2]; [9]", "value": "9 (75%) (%)"}, {"measurement": "SGOT, worst CTC Grade by cycle (increased of at least one Grade versus baseline Grade): Grade 1-2 (%)", "setting": "[2]; [9]", "value": "8 (67%) (%)"}, {"measurement": "SGOT, worst CTC Grade by cycle (increased of at least one Grade versus baseline Grade): Grade 3-4 (%)", "setting": "[2]; [9]", "value": "1 (8%) (%)"}, {"measurement": "SGPT, worst CTC Grade by cycle (increased of at least one Grade versus baseline Grade): All Grades (%)", "setting": "[2]; [9]", "value": "7 (58%) (%)"}, {"measurement": "SGPT, worst CTC Grade by cycle (increased of at least one Grade versus baseline Grade): Grade 1-2 (%)", "setting": "[2]; [9]", "value": "7 (58%) (%)"}, {"measurement": "Total Bilirubin, worst CTC Grade by cycle (increased of at least one Grade versus baseline Grade): All Grades (%)", "setting": "[2]; [9]", "value": "10 (83%) (%)"}, {"measurement": "Total Bilirubin, worst CTC Grade by cycle (increased of at least one Grade versus baseline Grade): Grade 1-2 (%)", "setting": "[2]; [9]", "value": "10 (83%) (%)"}, {"measurement": "SGOT, worst CTC Grade by cycle (increased of at least one Grade versus baseline Grade): All Grades (%)", "setting": "[2]; [10]", "value": "3 (60%) (%)"}, {"measurement": "SGOT, worst CTC Grade by cycle (increased of at least one Grade versus baseline Grade): Grade 1-2 (%)", "setting": "[2]; [10]", "value": "3 (60%) (%)"}, {"measurement": "SGPT, worst CTC Grade by cycle (increased of at least one Grade versus baseline Grade): All Grades (%)", "setting": "[2]; [10]", "value": "4 (80%) (%)"}, {"measurement": "SGPT, worst CTC Grade by cycle (increased of at least one Grade versus baseline Grade): Grade 1-2 (%)", "setting": "[2]; [10]", "value": "4 (80%) (%)"}, {"measurement": "Total Bilirubin, worst CTC Grade by cycle (increased of at least one Grade versus baseline Grade): All Grades (%)", "setting": "[2]; [10]", "value": "5 (100%) (%)"}, {"measurement": "Total Bilirubin, worst CTC Grade by cycle (increased of at least one Grade versus baseline Grade): Grade 1-2 (%)", "setting": "[2]; [10]", "value": "5 (100%) (%)"}, {"measurement": "SGOT, worst CTC Grade by cycle (increased of at least one Grade versus baseline Grade): All Grades (%)", "setting": "[2]; [11]", "value": "4 (100%) (%)"}, {"measurement": "SGOT, worst CTC Grade by cycle (increased of at least one Grade versus baseline Grade): Grade 1-2 (%)", "setting": "[2]; [11]", "value": "1 (25%) (%)"}, {"measurement": "SGOT, worst CTC Grade by cycle (increased of at least one Grade versus baseline Grade): Grade 3-4 (%)", "setting": "[2]; [11]", "value": "3 (75%) (%)"}, {"measurement": "SGPT, worst CTC Grade by cycle (increased of at least one Grade versus baseline Grade): All Grades (%)", "setting": "[2]; [11]", "value": "3 (75%) (%)"}, {"measurement": "SGPT, worst CTC Grade by cycle (increased of at least one Grade versus baseline Grade): Grade 1-2 (%)", "setting": "[2]; [11]", "value": "2 (50%) (%)"}, {"measurement": "SGPT, worst CTC Grade by cycle (increased of at least one Grade versus baseline Grade): Grade 3-4 (%)", "setting": "[2]; [11]", "value": "1 (25%) (%)"}, {"measurement": "Total Bilirubin, worst CTC Grade by cycle (increased of at least one Grade versus baseline Grade): All Grades (%)", "setting": "[2]; [11]", "value": "2 (50%) (%)"}, {"measurement": "Total Bilirubin, worst CTC Grade by cycle (increased of at least one Grade versus baseline Grade): Grade 1-2 (%)", "setting": "[2]; [11]", "value": "2 (50%) (%)"}, {"measurement": "SGOT, worst CTC Grade by cycle (increased of at least one Grade versus baseline Grade): All Grades (%)", "setting": "[2]; [12]", "value": "16 (94%) (%)"}, {"measurement": "SGOT, worst CTC Grade by cycle (increased of at least one Grade versus baseline Grade): Grade 1-2 (%)", "setting": "[2]; [12]", "value": "14 (82%) (%)"}, {"measurement": "SGOT, worst CTC Grade by cycle (increased of at least one Grade versus baseline Grade): Grade 3-4 (%)", "setting": "[2]; [12]", "value": "2 (12%) (%)"}, {"measurement": "SGPT, worst CTC Grade by cycle (increased of at least one Grade versus baseline Grade): All Grades (%)", "setting": "[2]; [13]", "value": "16 (89%) (%)"}, {"measurement": "SGPT, worst CTC Grade by cycle (increased of at least one Grade versus baseline Grade): Grade 1-2 (%)", "setting": "[2]; [13]", "value": "14 (78%) (%)"}, {"measurement": "SGPT, worst CTC Grade by cycle (increased of at least one Grade versus baseline Grade): Grade 3-4 (%)", "setting": "[2]; [13]", "value": "2 (11%) (%)"}, {"measurement": "Total Bilirubin, worst CTC Grade by cycle (increased of at least one Grade versus baseline Grade): All Grades (%)", "setting": "[2]; [13]", "value": "14 (77%) (%)"}, {"measurement": "Total Bilirubin, worst CTC Grade by cycle (increased of at least one Grade versus baseline Grade): Grade 1-2 (%)", "setting": "[2]; [13]", "value": "13 (72%) (%)"}, {"measurement": "Total Bilirubin, worst CTC Grade by cycle (increased of at least one Grade versus baseline Grade): Grade 3-4 (%)", "setting": "[2]; [13]", "value": "1 (5%) (%)"}, {"measurement": "SGOT, worst CTC Grade by cycle (increased of at least one Grade versus baseline Grade): All Grades (%)", "setting": "[2]; [14]", "value": "4 (57%) (%)"}, {"measurement": "SGOT, worst CTC Grade by cycle (increased of at least one Grade versus baseline Grade): Grade 1-2 (%)", "setting": "[2]; [14]", "value": "2 (28%) (%)"}, {"measurement": "SGPT, worst CTC Grade by cycle (increased of at least one Grade versus baseline Grade): All Grades (%)", "setting": "[2]; [14]", "value": "4 (57%) (%)"}, {"measurement": "SGPT, worst CTC Grade by cycle (increased of at least one Grade versus baseline Grade): Grade 1-2 (%)", "setting": "[2]; [14]", "value": "1 (14%) (%)"}, {"measurement": "Total Bilirubin, worst CTC Grade by cycle (increased of at least one Grade versus baseline Grade): All Grades (%)", "setting": "[2]; [14]", "value": "7 (100%) (%)"}, {"measurement": "Total Bilirubin, worst CTC Grade by cycle (increased of at least one Grade versus baseline Grade): Grade 1-2 (%)", "setting": "[2]; [14]", "value": "7 (100%) (%)"}, {"measurement": "SGOT, worst CTC Grade by cycle (increased of at least one Grade versus baseline Grade): All Grades (%)", "setting": "[2]; [15]", "value": "4 (80%) (%)"}, {"measurement": "SGOT, worst CTC Grade by cycle (increased of at least one Grade versus baseline Grade): Grade 1-2 (%)", "setting": "[2]; [15]", "value": "1 (20%) (%)"}, {"measurement": "SGOT, worst CTC Grade by cycle (increased of at least one Grade versus baseline Grade): Grade 3-4 (%)", "setting": "[2]; [15]", "value": "3 (60%) (%)"}, {"measurement": "Total Bilirubin, worst CTC Grade by cycle (increased of at least one Grade versus baseline Grade): All Grades (%)", "setting": "[2]; [15]", "value": "4 (80%) (%)"}, {"measurement": "Total Bilirubin, worst CTC Grade by cycle (increased of at least one Grade versus baseline Grade): Grade 1-2 (%)", "setting": "[2]; [15]", "value": "3 (60%) (%)"}, {"measurement": "Total Bilirubin, worst CTC Grade by cycle (increased of at least one Grade versus baseline Grade): Grade 3-4 (%)", "setting": "[2]; [15]", "value": "1 (20%) (%)"}, {"measurement": "SGPT, worst CTC Grade by cycle (increased of at least one Grade versus baseline Grade): All Grades (%)", "setting": "[2]; [16]", "value": "5 (83%) (%)"}, {"measurement": "SGPT, worst CTC Grade by cycle (increased of at least one Grade versus baseline Grade): Grade 3-4 (%)", "setting": "[2]; [16]", "value": "5 (83%) (%)"}, {"measurement": "frequency of transaminitis, grade 3-4 events", "setting": "[2]; q6wk versus q8wk schedule", "value": "lower in the q6wk than in the q8wk schedule"}, {"measurement": "cross-resistance", "setting": "[3]", "value": "No cross-resistance"}, {"measurement": "efficacy on liver metastases versus solid primary", "setting": "[4]; administered orally", "value": "more effective on the liver metastases than on the solid primary"}, {"measurement": "efficacy relative to oral formulation", "setting": "[4]; injectable formulation", "value": "less effective"}, {"measurement": "best result on survival", "setting": "[4]; oral formulation, administered daily for 5 days", "value": "doubling of survival time"}, {"measurement": "activity against liver metastases, oral versus i.v.", "setting": "[5]", "value": "higher after oral administration as compared to the i.v. route"}, {"measurement": "complete response (CR) in liver lesions", "setting": "[6]; 6 patients", "value": 1}, {"measurement": "partial responses (PRs) in liver lesions (2 confirmed and 1 unconfirmed)", "setting": "[6]; 6 patients", "value": 3}, {"measurement": "patients with response in liver lesions", "setting": "[6]", "value": "4 out of 6"}, {"measurement": "cytotoxic activity in vitro in the presence of liver microsomes", "setting": "[7]", "value": "increased"}, {"measurement": "principle toxicities", "setting": "[8]", "value": "nausea and vomiting (requiring intravenous antiemetic treatment), myelosuppression and transient elevations in transaminases"}, {"measurement": "antitumor effect observed", "setting": "[8]; tumor shrinkage at doses of 1250 and 1500 mcg/m^2, 197 patients", "value": "regressions of liver metastases were repeatedly observed"}]}]}
